Results from patent US4043994A, “New pentapeptides and methods for their production” (Parke, Davis & Company, priority 1976, dated 1977).
Several values for one entry are separate records, joined by “and”; a condition that tells them apart may be missing. Identical values can stand only once. Ends that are not written are not given here.

Tested on: LRF (luteinizing hormone release factor) induced luteinizing hormone (LH) release
Assay: In vitro LRF antagonist test in rat anterior pituitary cell cultures
Type: cell-based
Settings: for LH Value: culture medium
From the text: Pentapeptides of this invention were screened for LRF antagonist activity in vitro using rat anterior pituitary cell cultures as described by Vale et. al. [Endocrinology, 91, 562 (1972)]. The inhibition of LRF (luteinizing hormone release factor) induced luteinizing hormone (LH) release into the culture medium is the endpoint in this in vitro bioassay.

[1] = compound 1×10^-6 molar, LRF 2.5×10^-10 molar
[2] = compound 1×10^-6 molar, LRF 5×10^-10 molar
[3] = compound 5×10^-6 molar, LRF 5×10^-10 molar

Row | Molecule | % LH Release Inhibition [1] | LH Value [1] | % LH Release Inhibition [2] | LH Value [2] | % LH Release Inhibition [3] | LH Value [3] | LH Value (LRF alone 2.5×10^-10 molar) | LH Value (LRF alone 2.5×10^-10 molar, listed as LRF control) | LH Value (LRF alone 5×10^-10 molar)
1 | CCNC(=O)C1CCCN1C(=O)[C@@H](C)NC(=O)[C@H](Cc1ccc(OCc2ccccc2)cc1)NC(=O)[C@H](COCc1ccccc1)NC(=O)[C@@H](Cc1c[nH]c2ccccc12)NC(=O)OC(C)(C)C (mixture of isomers) [N^α -t-Butoxycarbonyl-D-tryptophyl-O-benzyl-L-seryl-O-benzyl-L-tyrosyl-D-alanyl-DL-proline N-ethylamide] | 84% | 10.61 ng/mL | 43% | 34.51 ng/mL | 90% | 14.02 ng/mL | – | – | –
2 | LRF Control: luteinizing hormone releasing factor, also referred to as luteinizing hormone releasing hormone, or LH-RH; the stimulus in the assay (QHWSYGLRPG; ends and bridges not checked; UniProt P01148 24-33, looked up) [reference compound] | – | – | – | – | – | – | 49.90 ng/mL and 28.52 ng/mL | 51.62 ng/mL | 52.93 ng/mL
3 | N^α -t-Butoxycarbonyl-N^im -benzyl-L-histidyl-O-benzyl-L-seryl-O-benzyl-L-tyrosyl-D-alanyl-L-leucine methyl ester | 72% | 20.26 ng/mL | – | – | – | – | – | – | –
4 | N^α -t-Butoxycarbonyl-N^im -benzyl-L-histidyl-O-benzyl-L-seryl-O-benzyl-L-tyrosyl-D-alanyl-L-leucyl hydrazide | 71% | 19.35 ng/mL | – | – | – | – | – | – | –
